These results are taken from PubChem BioAssay (NCI).

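Protocol summary: plate cells (96-well), add compound at 5 concentrations, incubate 48 h, interpolate endpoints linearly. TGI marks complete inhibition of growth.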

Among the test systems are A498 renal; ACHN renal; BT-549 breast; CAKI-1 renal; HCT-116 colon; HCT-15 colon; HOP-92 NSCLC; HS 578T breast; MDA-N; NCI-H226 lung; NCI-H522 lung; SK-MEL-28 melanoma; SK-MEL-5 melanoma; UO-31 renal.
What all share (assay): inhibition of tumour cell growth, NCI panel, 48 h

For the molecule `CC1(C)CCCCCC(C)(CCCCCCCCCCCO)C1=O` (stereo unspecified), the TGI in the experiment with A498 renal stood at 33 µM; in the experiment with ACHN renal, 25.7 µM; with BT-549 breast, 33.8 µM; in the experiment with CAKI-1 renal, 28.6 µM; with HCT-116 colon it was 28.8 µM; in the experiment on HCT-15 colon, 29.7 µM. Further, the TGI in the experiment with HOP-92 NSCLC stood at 31.2 µM; in the experiment on HS 578T breast, 32.4 µM; in the experiment with MDA-N, 32.3 µM; with NCI-H226 lung, 32.3 µM; in the experiment on NCI-H522 lung it was 31.1 µM; with SK-MEL-28 melanoma it was 32 µM. The TGI is 31.3 µM in the experiment with SK-MEL-5 melanoma and 30.9 µM with UO-31 renal.
Consider `BrCCC[P+](c1ccccc1)(c1ccccc1)c1ccccc1`, for which the TGI in the experiment with A498 renal is more than 100 µM; in the experiment with ACHN renal it was more than 100 µM; with BT-549 breast, more than 100 µM; with CAKI-1 renal, more than 100 µM; in the experiment on HCT-116 colon, 2.99 µM; in the experiment on HCT-15 colon, more than 100 µM. Besides, the TGI in the experiment with HOP-92 NSCLC was 44.4 µM; with HS 578T breast it was more than 79.6 µM; in the experiment with MDA-N, more than 76.5 µM; in the experiment on NCI-H226 lung, more than 100 µM; in the experiment with NCI-H522 lung, more than 27.5 µM; in the experiment with SK-MEL-28 melanoma it was more than 100 µM. In addition, the results for the TGI in the experiment with SK-MEL-5 melanoma and in the experiment on UO-31 renal were 21 µM and more than 100 µM, respectively.
Regarding `C=C(CN(C)C)C(=O)c1cc(C)ccc1C`, the TGI in the experiment with A498 renal came to 43.5 µM; with ACHN renal, 11.8 µM; with BT-549 breast, 32.5 µM; in the experiment with CAKI-1 renal, 11.8 µM; in the experiment on HCT-116 colon, 17.4 µM; in the experiment on HCT-15 colon it was 10.6 µM. Further, the TGI was 8.2 µM in the experiment with HOP-92 NSCLC; more than 91.3 µM in the experiment on HS 578T breast; 21.4 µM in the experiment on MDA-N; 27.8 µM in the experiment with NCI-H226 lung; 1.52 µM with NCI-H522 lung; 42.5 µM with SK-MEL-28 melanoma. Besides, the TGI was determined as 27.2 µM in the experiment with SK-MEL-5 melanoma and 19.1 µM in the experiment with UO-31 renal.
Regarding `COc1cc(CNC(=O)[C@H](Cc2ccc(O)cn2)NC(C)=O)cc(OC)c1`, the TGI in the experiment with A498 renal, in the experiment on ACHN renal, in the experiment with BT-549 breast, in the experiment on CAKI-1 renal, with HCT-116 colon and with HCT-15 colon was more than 100 µM throughout. Also, the TGI was 75.5 µM in the experiment on HOP-92 NSCLC; more than 100 µM in the experiment with HS 578T breast; more than 100 µM in the experiment with MDA-N; more than 100 µM in the experiment with NCI-H226 lung; more than 100 µM with NCI-H522 lung; more than 100 µM in the experiment with SK-MEL-28 melanoma. Further, the TGI in the experiment with SK-MEL-5 melanoma and in the experiment on UO-31 renal was more than 100 µM throughout.
Consider `O=Cc1[nH]c(=O)[nH]c(=O)c1CCl`, for which the TGI with A498 renal, with ACHN renal, in the experiment on BT-549 breast, with CAKI-1 renal, in the experiment on HCT-116 colon and in the experiment with HCT-15 colon was more than 100 µM each time. For the same molecule, the TGI with HOP-92 NSCLC, with HS 578T breast, in the experiment with MDA-N, in the experiment with NCI-H226 lung, in the experiment on NCI-H522 lung and in the experiment with SK-MEL-28 melanoma was more than 100 µM in each case. Further, the TGI in the experiment on SK-MEL-5 melanoma and in the experiment on UO-31 renal was more than 100 µM each time.
For `CCOC(=O)NC(NNc1ccc([N+](=O)[O-])cc1[N+](=O)[O-])(C(F)(F)F)C(F)(F)F`, the TGI in the experiment with A498 renal is 73 µM; in the experiment on ACHN renal it was more than 100 µM; in the experiment with BT-549 breast, more than 100 µM; in the experiment on CAKI-1 renal, more than 100 µM; in the experiment with HCT-116 colon, more than 100 µM; in the experiment on HCT-15 colon, more than 100 µM. Moreover, the TGI in the experiment with HOP-92 NSCLC was 47.3 µM; in the experiment on HS 578T breast, more than 100 µM; with MDA-N it was more than 100 µM; in the experiment on NCI-H226 lung it was more than 100 µM; with NCI-H522 lung, 77 µM; in the experiment on SK-MEL-28 melanoma it was more than 100 µM. Moreover, the TGI is more than 100 µM with SK-MEL-5 melanoma and 57.6 µM in the experiment on UO-31 renal.
With `CCOC(=O)/C=C(\C(=O)OCC)n1cnc2c(N)ncnc21`, the TGI in the experiment with A498 renal came to 17.7 µM; in the experiment with ACHN renal, 18.5 µM; in the experiment with BT-549 breast it was 27.3 µM; in the experiment with CAKI-1 renal, 2.86 µM; with HCT-116 colon, 12.3 µM; in the experiment on HCT-15 colon, 12.2 µM. The TGI with HOP-92 NSCLC was 7.12 µM; in the experiment on HS 578T breast, 51.5 µM; in the experiment on MDA-N, 29.3 µM; in the experiment with NCI-H226 lung, 13 µM; in the experiment on NCI-H522 lung it was 6.09 µM; in the experiment with SK-MEL-28 melanoma, 27.8 µM. In addition, the TGI in the experiment with SK-MEL-5 melanoma was 28.6 µM; in the experiment on UO-31 renal, 30 µM.
`OCCCCn1cc(Cn2ncc3c(SCc4ccccc4)ncnc32)nn1`: the TGI with A498 renal, with ACHN renal, in the experiment with BT-549 breast, in the experiment with CAKI-1 renal, with HCT-116 colon and with HCT-15 colon was more than 100 µM each time. In addition, the TGI was more than 100 µM in the experiment on HOP-92 NSCLC; more than 100 µM in the experiment on HS 578T breast; 39.2 µM with MDA-N; more than 100 µM with NCI-H226 lung; more than 100 µM with NCI-H522 lung; more than 100 µM in the experiment on SK-MEL-28 melanoma. For the same molecule, the TGI in the experiment with SK-MEL-5 melanoma was 54.5 µM; in the experiment with UO-31 renal, more than 100 µM.
On to `COc1ccc(/C=C(\C(=O)OCC(C)C)c2ccc(OC)c(OC)c2)cc1OC`, for which the TGI in the experiment with A498 renal, with ACHN renal, with BT-549 breast, in the experiment with CAKI-1 renal, with HCT-116 colon and with HCT-15 colon was more than 100 µM throughout. For the same molecule, the TGI in the experiment with HOP-92 NSCLC, in the experiment on HS 578T breast, in the experiment with MDA-N, in the experiment with NCI-H226 lung, in the experiment on NCI-H522 lung and in the experiment with SK-MEL-28 melanoma was more than 100 µM throughout. Besides, the TGI in the experiment with SK-MEL-5 melanoma and with UO-31 renal was more than 100 µM in each case.
